The text below walks through data of US9301952B2, “Diarylpyridine anti-viral compounds” (Kineta, Inc., priority 2010, dated 2016).

Like-named read-outs stand apart in the source and are kept apart here.

Usually IC50 stands for the midpoint of a concentration-inhibition curve. A word on the CC50: it is the concentration at which the toxic effect on the cells reaches its halfway point.

Data set [1] concerns HCV2a. The data set is described as follows: HCV focus-forming assay (FFA) / HCV IF antiviral assay. It is filed as cell-based, Hepatitis C virus. As for the experimental part:
FIG. 1 is a graph of an HCV focus-forming assay. Huh7 cells were pre-treated with compound KIN400 for 24 hours and infected with HCV2a at an multiplicity of infection (MOI) of 0.5 for 48 hours. HCV protein was detected by immunofluorescent staining with viral-specific serum and foci were normalized to negative control cells that were not drug treated (equal to 1).
HCV IF antiviral assay. Huh7 cells are seeded on a 96 well plate at 5×10^3 cells per well and cells are allowed to attach and grow for 24 hours. Compounds that have been diluted to 10 uM in media and contain a final concentration of 0.5% DMSO are added to each well and grown another 24 hours. The compound media solution is removed from the plate and stored in a clean tissue culture dish. Cell monolayers are washed with PBS and HCV2a virus is added at the stated MOI. Virus is incubated for 2-4 hours and then removed, the monolayers are washed with PBS and the compound solutions are replaced into each well.
The cells are grown overnight and then cells are fixed and stained for HCV proteins. All buffers and reagents are used from the Cellomics staining kits described above. Primary serum PHS#72 is diluted 1:3,000 in wash buffer and incubated at room temperature 1 hour. […] The number of infected cells is counted and representative images are saved.

Data set [2] deals with Influenza WSN strain.
For data set [3], the system named is Murine Encephalomyocarditis virus (EMCV). The data set is described as follows: EMCV antiviral assay (cell viability by MTS after infection). Conditions: Huh7 cells, EMCV 250 pfu. The class given is cell-based.
Data set [4] in a line: MTS assay to determine cytotoxicity. Conditions: human; Huh7 cells, 24 hours. It is filed as cell-based, human. As for the experimental part: (§1) MTS assay to determine cytotoxicity. Cultured human Huh7 cells are treated with increasing amounts of compound or equivalent amounts of DMSO diluted in media for 24 hours to see their effect on cell viability. The proportion of viable cells is calculated using a cell viability assay that measures conversion of a tetrazolium compound [[…]-5-(3-carboxymethoxyphenyl)-2-(4-sulfophenyl)-2H-tetrazolium, inner salt; MTS] to a colored formazan compound in live cells.
(§2) The conversion of MTS to formazan is detected in a 96-well microtiter plate reader, and the resulting optical densities can be plotted directly to estimate cell viability. […] Compounds were diluted to final concentrations of 0, 5, 10, 20, and 50 uM in media containing 0.5% DMSO. Negative control wells contain no compound and positive control for cytotoxicity is examined using an EMCV infection which causes 100% cytopathic effect. Each compound concentration and control is done in triplicate wells to generate error bars.
(In general: Formazan colour is commonly taken as a measure of viable cells.)

Data set [5] deals with Huh7 cells. In words: MTS assay to determine cytotoxicity. It is filed as cell-based, human. As for the experimental part:
as §1, §2

In data set [6] the test system is HCV RNA. In words: Decrease of HCV RNA. The class given is cell-based, Hepatitis C virus. As to the method: KIN400 compounds are tested for in vitro antiviral activity against HCV 2A and influenza A virus (A/WSN/33). Viral protein and RNA levels are assessed following drug treatment using the assays described above.
In data set [7] the test system is Influenza WSN strain. In words: microbe, parasite or virus in culture. Conditions: Influenza A virus, A549, read-out: Influenza nucleoprotein (NP) ELISA (IC50).
The subject of data set [8] is IRF-3. In words: Activation of IRF-3. It is filed as cell-based.

Regarding `N#Cc1c(-c2ccccc2)cc(-c2ccccc2)nc1SCC(=O)N1CCOCC1` [KIN400], the IC50 in data set [1] (Hepatitis C virus, Huh-7, Huh7 cells) turned out to be 5.1 µM; in data set [1] (Huh7 cells) it was 5.1 µM; in data set [7] it was 0.2 µM. Besides, the “Therapeutic index (TI) (CC50/IC50)” value is over 10 in data set [2] and 250 in data set [2] (listed as KIN100). For the same molecule, the “antiviral activity against influenza virus (in words)” value in data set [2] (influenza virus strain WSN) is given as “antiviral activity against influenza virus”. Moreover, the Cell viability post-infection is recorded as about 0.75 in data set [3] (5 μM), about 0.95 in data set [3] (10 μM) and about 1.05 in data set [3] (20 μM). In data set [4], this molecule registered a CC50 at 24 h of over 50 µM. The same molecule had a CC50 in data set [5] of over 50 µM. In addition, the “cytotoxicity (in words)” value in data set [5] is reported as “low cytotoxicity”. In addition, the entries for the “Decrease HCV RNA” value in data set [6] and in data set [6] (listed as KIN100) were “Yes” and “decrease in HCV RNA”, respectively. Moreover, in data set [8], the “activation of IRF-3” value is listed as “activation of IRF-3”.
